Results: article PMC5269720, “Conformational Change of a Tryptophan Residue in BtuF Facilitates Binding and Transport of Cobinamide by the Vitamin B12 Transporter BtuCD-F” (Scientific Reports, 2017)
Where two headings read alike, the source gives them in different places.

Tests used:
[1] = target: T1, BtuFfluo W66A (E.c. BtuF) (Escherichia coli, UniProt P37028, Q145C/W66A); assay: Fluorescence quenching substrate binding assay with BtuFfluo, W66A mutant; details: BtuFfluo 5 nM, substrate 0.02 nM to 33 μM, 30 min at 10 °C, mean and S.E.M., n = 12
T1 construct: His6; made in house
T1 sequence (P37028 23-266 W66A/Q145C): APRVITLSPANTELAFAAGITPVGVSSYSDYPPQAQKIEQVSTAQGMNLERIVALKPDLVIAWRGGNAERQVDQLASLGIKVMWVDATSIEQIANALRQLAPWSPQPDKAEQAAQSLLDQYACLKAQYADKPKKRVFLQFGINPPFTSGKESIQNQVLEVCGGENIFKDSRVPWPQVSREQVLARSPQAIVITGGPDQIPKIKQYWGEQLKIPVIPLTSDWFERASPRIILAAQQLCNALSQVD
Experimental: (§1) For binding assays BtuF was labeled at a cysteine residue in the backbone helix with fluorescein-5-maleimide (Thermo scientific 62245) as described previously. In brief, 50 to 100 μM BtuF Q145C (Invitrogen QuickChange) was labeled with a 10-fold molar excess of fluorescein-5-maleimide (BtuFfluo). The reaction was run over night at 4 °C in the presence of 1 mM TCEP to prevent oxidation and stopped with 5 mM β-mercaptoethanol. Excess label was removed by desalting with PD10 columns and the protein was further purified by size exclusion chromatography. Protein concentration was determined by Bradford assay using BSA for calibration and the labeling efficiency was determined by measuring the absorbance at 494 nm. The labeled protein was flash frozen in liquid nitrogen and stored at −80 °C until the day of use. Final storage buffer was 50 mM HEPES 7, 200 mM NaCl, 0.5 mM EDTA-NaOH 8 and 10% v/v Glycerol.
(§2) The assay is based on monitoring the ligand-induced change in emission of fluorescein attached to BtuF (BtuFfluo). A similar approach has been used to determine the affinity of MBP for maltose in the presence of various sAB[40][41][42]. BtuFfluo at 5 nM was incubated with a range of substrate concentrations from 0.02 nM to 33 μM. After incubation for 30 min at 10 °C the fluorescence intensity was recorded at an excitation wavelength of 485 nm and emission at 528 nm. The maximum signal was recorded in the absence of substrate and decreased with increasing substrate concentration. The difference of the maximum intensity minus the signal at a certain substrate concentration was plotted against the substrate concentration. One site –specific binding in Prism GraphPad was used to fit the data for KD determination (GraphPad Prism version 6.04 for Windows, GraphPad Software, La Jolla California USA, www.graphpad.com”). Binding buffer composition was 50 mM Tris 7.5 and 200 mM NaCl.

[2] = target: T2, BtuFfluo W66R (E.c. BtuF) (Escherichia coli, UniProt P37028, Q145C/W66R); assay: Fluorescence quenching substrate binding assay with BtuFfluo, W66R mutant; details: for Kd: BtuFfluo 5 nM, substrate 0.02 nM to 33 μM, 30 min at 10 °C, mean and S.E.M., n = 9; for decrease in affinity compared to wt: W66R (arginine) versus wild type BtuF
T2 construct: His6; made in house
T2 sequence (P37028 23-266 W66R/Q145C): as the sequence (P37028 23-266 W66A/Q145C) above, with A44R counted along it
Experimental: as §1, §2

[3] = system: wild type BtuCD with BtuF W66 mutants (W66A, W66R, W66E, W66F); assay: In vitro substrate transport assay with liposome reconstituted wild type BtuCD and BtuF W66 mutants; format: biochemical, Escherichia coli; details: 4 mg/ml proteoliposomes (~0.5 μM total BtuCD), 1 μM BtuF, 2 mM ATP, 15 μM cobinamide or cyanocobalamin
Experimental: (§3) BtuCD was expressed, purified and reconstituted as described previously with some modifications regarding buffer composition and reconstitution procedure. In brief, BtuCD with an N-terminal His10-tag on BtuC was purified by IMAC and desalted into a buffer of the following composition: 50 mM Tris 7.5, 500 mm NaCl, 0.5 mM EDTA-NaOH 8 and 0.1% w/v LDAO. Purified protein was used directly for reconstitution into liposomes consisting of E. coli Polar lipids and α-Phosphatidylcholine (3:1 weight ratio, Avanti Polar Lipids 100600 C and 840051 C). Liposomes were destabilized with 0.3% w/v Triton X-100 for 20 min at RT. Protein was added with a ratio of 50:1 LPR and incubated for 90 min at RT. Detergent was removed by BioBeads (40 mg/ml mixture) in 4 steps and proteoliposomes were stored at −80 °C until the day of experiment. The protein concentration within the liposomes was determined by Amido black protein assay using BSA for the calibration curve.
The amount of right-side-in oriented BtuCD in liposomes was determined as described previously for ABC type II importer HmuUV with minor modifications. Briefly, liposome-reconstituted BtuCD was incubated with 1 μM fluorescently labeled BtuF (BtuFfluo) for 30 min at RT followed by a spin to remove excess BtuFfluo. The pellet was washed and resuspended at 1.25 mg/ml liposome concentration. The amount of BtuFfluo associated with the liposomes was determined by measuring the fluorescence signal at an excitation wavelength of 485 nm and an emission wavelength of 516 nm. Unspecific BtuFfluo interaction with liposomes was measured using empty liposomes.
For the substrate transport assays radiolabeled ^14C-cyano-aquo-cobinamide (^14CN-Cbi, labeled in house) or ^57Co-cyanocobalamin (^57Co-Cbl, MP Biomedicals 06B-430000, 10.5 uCi) was used. […] The radioactivity trapped on the filters was measured either by a β counter using LCS in case of ^14CN-Cbi or a γ counter in case of ^57Co-Cbl. Initial transport rates were determined by using linear regression in PrismGraphpad.

[4] = target: T3, BtuFfluo W66H (E.c. BtuF) (Escherichia coli, UniProt P37028, Q145C/W66H); assay: Fluorescence quenching substrate binding assay with BtuFfluo, W66H mutant; details: for Kd: BtuFfluo 5 nM, substrate 0.02 nM to 33 μM, 30 min at 10 °C, mean and S.E.M., n = 12
T3 construct: His6; made in house
T3 sequence (P37028 23-266 W66H/Q145C): as the sequence (P37028 23-266 W66A/Q145C) above, with A44H counted along it
Experimental: as §1, §2

[5] = target: T4, BtuFfluo W66L (E.c. BtuF) (Escherichia coli, UniProt P37028, Q145C/W66L); assay: Fluorescence quenching substrate binding assay with BtuFfluo, W66L mutant; details: for Kd: BtuFfluo 5 nM, substrate 0.02 nM to 33 μM, 30 min at 10 °C, mean and S.E.M., n = 12
T4 construct: His6; made in house
T4 sequence (P37028 23-266 W66L/Q145C): as the sequence (P37028 23-266 W66A/Q145C) above, with A44L counted along it
Experimental: as §1, §2

[6] = target: T5, BtuFfluo W66E (E.c. BtuF) (Escherichia coli, UniProt P37028, Q145C/W66E); assay: Fluorescence quenching substrate binding assay with BtuFfluo, W66E mutant
T5 construct: His6; made in house
T5 sequence (P37028 23-266 W66E/Q145C): as the sequence (P37028 23-266 W66A/Q145C) above, with A44E counted along it
Experimental: as §1, §2

[7] = target: T6, wild type BtuFfluo (E.c. BtuF) (Escherichia coli, UniProt P37028, Q145C); assay: Fluorescence quenching substrate binding assay with BtuFfluo, wild type; details: BtuFfluo 5 nM, substrate 0.02 nM to 33 μM, 30 min at 10 °C, mean and S.E.M., n = 12
T6 construct: His6; made in house
T6 sequence (P37028 23-266 Q145C): as the sequence (P37028 23-266 W66A/Q145C) above, with A44W counted along it
Experimental: as §1, §2

[8] = target: T7, BtuFfluo W66F (E.c. BtuF) (Escherichia coli, UniProt P37028, Q145C/W66F); assay: Fluorescence quenching substrate binding assay with BtuFfluo, W66F mutant; details: BtuFfluo 5 nM, substrate 0.02 nM to 33 μM, 30 min at 10 °C, mean and S.E.M., n = 12
T7 construct: His6; made in house
T7 sequence (P37028 23-266 W66F/Q145C): as the sequence (P37028 23-266 W66A/Q145C) above, with A44F counted along it
Experimental: as §1
The assay is based on monitoring the ligand-induced change in emission of fluorescein attached to BtuF (BtuFfluo). A similar approach has been used to determine the affinity of MBP for maltose in the presence of various sAB[40][41][42]. […] After incubation for 30 min at 10 °C the fluorescence intensity was recorded at an excitation wavelength of 485 nm and emission at 528 nm. The maximum signal was recorded in the absence of substrate and decreased with increasing substrate concentration. […]

[9] = target: T8, BtuFfluo W66Y (E.c. BtuF) (Escherichia coli, UniProt P37028, Q145C/W66Y); assay: Fluorescence quenching substrate binding assay with BtuFfluo, W66Y mutant; details: for Kd: BtuFfluo 5 nM, substrate 0.02 nM to 33 μM, 30 min at 10 °C, mean and S.E.M., n = 12
T8 construct: His6; made in house
T8 sequence (P37028 23-266 W66Y/Q145C): as the sequence (P37028 23-266 W66A/Q145C) above, with A44Y counted along it
Experimental: as §1, §2

wild type BtuCD-F = target: T9, wild type BtuCD-F (Escherichia coli, UniProt P06609+P37028); assay: In vitro substrate transport assay with liposome reconstituted BtuCD and wild type BtuF; format: biochemical
T9 construct: His10 (N); made in house
T9 sequence (P06609 whole entry): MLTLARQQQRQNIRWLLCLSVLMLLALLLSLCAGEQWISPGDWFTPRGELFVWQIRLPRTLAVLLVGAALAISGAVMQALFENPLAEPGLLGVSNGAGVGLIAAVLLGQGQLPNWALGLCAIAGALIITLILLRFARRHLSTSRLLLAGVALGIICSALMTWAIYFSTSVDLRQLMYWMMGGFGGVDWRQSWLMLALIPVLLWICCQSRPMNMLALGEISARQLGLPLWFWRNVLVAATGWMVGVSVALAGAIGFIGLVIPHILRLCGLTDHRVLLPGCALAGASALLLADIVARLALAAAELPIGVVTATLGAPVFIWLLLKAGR
T9 sequence (P37028 23-266): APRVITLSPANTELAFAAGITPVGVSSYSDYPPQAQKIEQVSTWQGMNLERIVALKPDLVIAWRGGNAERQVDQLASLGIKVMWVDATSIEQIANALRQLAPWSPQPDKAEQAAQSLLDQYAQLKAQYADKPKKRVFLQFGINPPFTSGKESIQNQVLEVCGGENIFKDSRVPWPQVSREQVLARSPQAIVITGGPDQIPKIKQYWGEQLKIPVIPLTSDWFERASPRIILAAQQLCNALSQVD
T9 sequence (P06611 whole entry, further chain): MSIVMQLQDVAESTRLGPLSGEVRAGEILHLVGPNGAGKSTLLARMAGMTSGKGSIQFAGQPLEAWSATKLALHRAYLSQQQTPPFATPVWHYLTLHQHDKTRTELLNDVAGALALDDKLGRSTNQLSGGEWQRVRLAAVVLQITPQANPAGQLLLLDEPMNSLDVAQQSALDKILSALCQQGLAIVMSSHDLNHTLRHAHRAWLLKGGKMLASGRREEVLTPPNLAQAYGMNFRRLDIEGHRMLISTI
Experimental: as §3
The amount of right-side-in oriented BtuCD in liposomes was determined as described previously for ABC type II importer HmuUV with minor modifications. […] The amount of BtuFfluo associated with the liposomes was determined by measuring the fluorescence signal at an excitation wavelength of 485 nm and an emission wavelength of 516 nm. Unspecific BtuFfluo interaction with liposomes was measured using empty liposomes. […]

## cyanocobalamin [Cbl]
[1]; CN-Cbl, read-out: KD of Cbl
  Kd: 0.014 ± 0.004 µM
[2]; CN-Cbl, read-out: KD of Cbl
  Kd: 0.068 ± 0.013 µM
[2]
  decrease in affinity compared to wt: ~ 7 fold
[3]
  effect of BtuF W66X substitution on in vitro transport rate: not influenced
[4]; CN-Cbl, read-out: KD of Cbl
  Kd: 0.0055 ± 0.0017 µM
[5]; CN-Cbl, read-out: KD of Cbl
  Kd: 0.015 ± 0.002 µM
[6]; CN-Cbl, BtuFfluo 5 nM, substrate 0.02 nM to 33 μM, 30 min at 10 °C, mean and S.E.M., n = 12, read-out: KD of Cbl
  Kd: 0.057 ± 0.015 µM
[6]; W66E (glutamate) versus wild type BtuF
  decrease in affinity compared to wt: ~ 7 fold
[7]; CN-Cbl
  KD of Cbl: low nM range
[7]; CN-Cbl, read-out: KD of Cbl
  Kd: 0.0091 ± 0.0026 µM
[8]; CN-Cbl, read-out: KD of Cbl
  Kd: 0.008 ± 0.0019 µM
[9]; CN-Cbl, read-out: KD of Cbl
  Kd: 0.0057 ± 0.0017 µM

## C/C1=C2/[N-][C@H]([C@H](CC(N)=O)[C@@]2(C)CCC(=O)NC[C@@H](C)O)[C@]2(C)N=C(/C(C)=C3N=C(/C=C4N=C1[C@@H](CCC(N)=O)C\4(C)C)[C@@H](CCC(N)=O)[C@]\3(C)CC(N)=O)[C@@H](CCC(N)=O)[C@]2(C)CC(N)=O.[Co+3] [Cbi, cobinamide]
[1]; di-CN-Cbi
  KD of Cbi: low micromolar range
[1]; di-CN-Cbi, read-out: KD of Cbi
  Kd: 1.8 ± 0.8 µM
Wild type BtuCD-F; 14CN-Cbi, 4 mg/ml proteoliposomes (~0.5 μM total BtuCD), 1 μM BtuF, 15 μM cobinamide, 2 mM ATP, 22 °C, corrected for right-side-in oriented transporters, mean ± S.E.M., n = 6
  initial transport rate: 0.7 ± 0.2 nmol Cbi/mg protein/min
Wild type BtuCD-F; calculated, Cbi versus Cbl transport by wild type BtuCD-F
  in vitro turnover number for Cbi transport, slower than that of Cbl transport: approximately 1.5 fold
[2]
  decrease in affinity compared to wt: more than 10 fold
[2]; di-CN-Cbi, read-out: KD of Cbi
  Kd: 0.8 ± 0.2 µM
[3]
  effect of BtuF W66X substitution on in vitro transport rate: hardly affected
[3]; listed as cobinamide
  effect of BtuF W66X substitution on in vitro transport rate: not influenced
[4]; W66H (histidine) versus wild type BtuF
  reduced affinity compared to wt: more than 10 fold
[4]; di-CN-Cbi, read-out: KD of Cbi
  Kd: 0.5 ± 0.1 µM
[5]; W66L (leucine) versus wild type BtuF
  reduced affinity compared to wt: 3 fold
[5]; di-CN-Cbi, read-out: KD of Cbi
  Kd: 0.12 ± 0.02 µM
[6]; di-CN-Cbi, BtuFfluo 5 nM, substrate 0.02 nM to 33 μM, 30 min at 10 °C, mean and S.E.M., n = 12
  KD of Cbi: low micromolar range
[6]; di-CN-Cbi, BtuFfluo 5 nM, substrate 0.02 nM to 33 μM, 30 min at 10 °C, mean and S.E.M., n = 12, read-out: KD of Cbi
  Kd: 2.9 ± 0.8 µM
[7]; di-CN-Cbi, read-out: KD of Cbi
  Kd: 0.04 ± 0.01 µM
[8]; di-CN-Cbi, read-out: KD of Cbi
  Kd: 0.03 ± 0.007 µM
[9]; W66Y (tyrosine) versus wild type BtuF
  reduced affinity compared to wt: 3 fold
[9]; di-CN-Cbi, read-out: KD of Cbi
  Kd: 0.15 ± 0.03 µM
